Reference: patent US20190125785A1, “HYPOTHERMAL INHALATION GAS COMPOSITION” (MONATOMICS TECHNOLOGY, priority 2016, published 2019)

Assay: rectal body temperature of rats after 3 hours in an enclosure supplied with a 22% oxygen / 78% helium, xenon or argon mixture at different temperatures
Assay type: in vivo, rat
Details: comparison of FIGS. 1 and 2
Source text: The graph of FIG. 1, which represents the experimental body temperature data Tc collected on rats as a function of the inhalation temperature Ti of a helium-oxygen mixture (curve C1) or of a xenon-oxygen mixture (curve C2), makes it possible to determine the proportions of the gas composition to be complied with in order to obtain a hypothermal gas mixture, depending on the inhalation temperature. In a more detailed manner, curves C1 and C2 correspond to regression lines obtained based on said experimental data Pi, several examples of which have been plotted in FIG. 1.
The experimental data were obtained as follows: The rats were placed for 3 hours in a closed enclosure supplied with a continuous flow of a gas mixture containing 22% oxygen (O2) and 78% helium, xenon or argon (He, Xe or Ar). This gas mixture was administered at different temperatures. The flow of the gas mixture was 10 mL/min and made it possible to maintain the carbon dioxide (CO2) concentration below 0.03% and the humidity at around 60% to 70%. […] At the end of the 3 hours of exposure, the rectal body temperature of the rats was measured for each administration temperature.
The inhalation temperature Ti can be between 16° C. and 27° C., for example.

[Ar] [Argon (Ar), Argon]
hypothermal properties (slope of curve C3 compared with curve C2): lower hyperthermal properties than xenon
